For series [1] the following is noted: both, human, in vivo, po, 60 mg. The procedure:
The clinical study was conducted at Biotrial Rennes (Rennes, France), in accordance with the Declaration of Helsinki. The study (NG100-101) was a double-blind, placebo-controlled, ascending single- and multiple-dose study of the safety, tolerability, and pharmacokinetics of metopimazine administered orally to healthy adult subjects. The study protocol, informed consent form, and appropriate related documents were approved by the institutional review board, and all subjects provided written informed consent prior to participation in the study.
In this study, sequential ascending single doses were administered to 4 cohorts of 8 participants (6 actives and 2 placebos per cohort, in cohorts 1, 2 and 3 following a randomization 6:2 and in cohort 4 with a 1:1 randomization for the two sentinel participants. In the morning, after at least 10 hours of fasting overnight, eight healthy adult subjects (male or female aged 18 to 45), were orally administered metopimazine (or a matching placebo). Cohort 1-4 received a matching placebo or ascending doses of Vogalene (metopimazine) capsules at the doses of 15 mg, 30 mg, 45 mg, or 60 mg, respectively. […] Plasma concentrations of metopimazine, metopimazine acid and metopimazine sulfoxide were quantified using LC-MS/MS methods. […]

Another series addresses human D2 receptor (Homo sapiens, UniProt P14416). The following applies: relative to MPZ; cited from earlier work.
The subject of series [2] is human microsomal liver amidase. Nature of the series: Incubations with HLM for microsomal hydrolase/amidase activity. Format: in vitro ADME. Conditions: HLM, 10 μM MPZ, 60 min, pH 7.4, 8.4 and 9.4. The procedure: Incubations with HLM for Microsomal Hydrolase/Amidase Activity Prior to the reaction for amidase activity, the reaction mixture containing KPi buffer (pH 7.4, 8.4, or 9.4) and HLM was pre-incubated at 50° C. for 5 minutes to inactivate CYP and FMO activities in HLM. The mixture was placed on ice to cool down. An aliquot was taken out which was considered as t=0 min incubation. Then 10 μM MPZ was added into the remaining mixture and incubated at 37° C. on an orbital shaker for 60 minutes. A parallel set of incubations was conducted with 10 μM MPZ in the presence at 2 and 16 μM, of BNPP (a known inhibitor of amidase). All reactions were in triplicate. The total percentage of organic solvent in incubation mixture was ≤0.1%. The reactions were terminated by the addition of chilled acetonitrile: methanol, 90:10, (v/v). The samples were vortex-mixed and stored at ≤−70° C. and were subjected analyzed by LC MS/MS.

The text below walks through data of patent US20240156832A1, “METHODS OF METABOLIZING METOPIMAZINE AND ITS SALTS” (Neurogastrx, Inc., priority 2020, published 2024).

Entries after “also recorded” stand apart in the source; their conditions may differ.

Sequence of human D2 receptor (P14416 whole entry): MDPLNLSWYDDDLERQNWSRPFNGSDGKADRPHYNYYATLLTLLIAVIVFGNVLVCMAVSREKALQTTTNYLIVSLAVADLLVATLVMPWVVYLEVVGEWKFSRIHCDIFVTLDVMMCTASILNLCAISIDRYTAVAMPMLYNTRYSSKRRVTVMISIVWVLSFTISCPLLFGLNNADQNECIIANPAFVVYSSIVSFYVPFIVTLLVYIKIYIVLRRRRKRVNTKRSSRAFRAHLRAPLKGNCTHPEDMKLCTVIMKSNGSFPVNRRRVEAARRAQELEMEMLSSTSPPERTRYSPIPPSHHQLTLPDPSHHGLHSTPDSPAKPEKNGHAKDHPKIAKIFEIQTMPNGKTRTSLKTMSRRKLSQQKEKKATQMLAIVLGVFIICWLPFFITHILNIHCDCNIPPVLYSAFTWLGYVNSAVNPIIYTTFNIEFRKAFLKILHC

Take `CS(=O)(=O)c1ccc2c(c1)N(CCCN1CCC(C(N)=O)CC1)c1ccccc1S2` [MPZ, metopimazine]: the Tmax in series [1] came to 3 h.
Take `CS(=O)(=O)c1ccc2c(c1)N(CCCN1CCC(C(=O)O)CC1)c1ccccc1S2` [MPZA, metopimazine acid]: the “less potent at the human D2 receptor compared to the parent” value on human D2 receptor was “about 200 fold”. Further, in series [2], the “MPZA formation as a function of pH” value is “faster the higher the pH; also recorded: maximal at the highest pH tested, pH 9.4; also recorded: occurs at all pHs and increases at pHs above physiologic pH”.
